Test results: article PMC2233905 (The Journal of General Physiology, 2004)

Molecular target: T1, hEag2 channels (Homo sapiens, UniProt Q8NCM2)
T1 sequence (Q8NCM2 1-988): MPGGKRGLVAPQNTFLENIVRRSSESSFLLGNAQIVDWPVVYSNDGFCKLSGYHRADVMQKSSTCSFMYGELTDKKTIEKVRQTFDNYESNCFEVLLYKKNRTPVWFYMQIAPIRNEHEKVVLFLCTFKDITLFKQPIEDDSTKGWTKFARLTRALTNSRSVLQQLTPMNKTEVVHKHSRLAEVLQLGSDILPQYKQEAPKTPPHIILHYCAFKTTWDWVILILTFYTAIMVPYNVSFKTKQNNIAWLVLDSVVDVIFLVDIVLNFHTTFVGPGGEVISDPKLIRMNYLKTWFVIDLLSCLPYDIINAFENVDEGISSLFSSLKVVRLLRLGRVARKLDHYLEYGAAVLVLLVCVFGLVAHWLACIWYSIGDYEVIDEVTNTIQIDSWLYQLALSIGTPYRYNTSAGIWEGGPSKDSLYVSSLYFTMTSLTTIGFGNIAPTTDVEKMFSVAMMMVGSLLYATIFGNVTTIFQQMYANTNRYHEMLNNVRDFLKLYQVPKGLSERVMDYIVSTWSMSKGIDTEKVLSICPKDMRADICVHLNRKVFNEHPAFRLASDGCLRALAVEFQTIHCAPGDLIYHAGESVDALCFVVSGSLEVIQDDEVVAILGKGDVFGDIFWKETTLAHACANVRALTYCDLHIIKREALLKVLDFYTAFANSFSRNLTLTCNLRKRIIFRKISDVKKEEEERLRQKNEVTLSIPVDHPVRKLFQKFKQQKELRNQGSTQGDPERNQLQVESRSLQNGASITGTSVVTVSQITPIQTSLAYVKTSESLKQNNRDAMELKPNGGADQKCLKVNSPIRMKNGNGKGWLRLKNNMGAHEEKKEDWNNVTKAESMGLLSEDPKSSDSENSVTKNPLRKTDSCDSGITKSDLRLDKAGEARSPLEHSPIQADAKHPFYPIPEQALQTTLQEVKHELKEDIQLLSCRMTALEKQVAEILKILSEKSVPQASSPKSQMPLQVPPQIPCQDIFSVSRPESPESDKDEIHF
Assay: hEag2 channels expressed in Xenopus oocytes
Type: cell-based

IC50: ~1500 nM
SMILES: COc1ccc(CCN2CCC(Nc3nc4ccccc4n3Cc3ccc(F)cc3)CC2)cc1 [astemizole]
